Measured values: patent US10562888B2, “Crystalline FGFR4 inhibitor compound and uses thereof” (Eisai R&D Management Co., Ltd., priority 2015, dated 2020)
In brackets after ≈: the same amount, converted by molar mass.

Assay: Solubility in 0.1 N HCl
Type: physicochemical
Settings: simulated gastric fluid

Work on `C=CC(=O)Nc1cc(N2CCN(CC)CC2)ccc1Nc1cc(N(C)C(=O)Nc2c(Cl)c(OC)cc(OC)c2Cl)ncn1` [Compound 108, N-(2-((6-(3-(2,6-dichloro-3,5-dimethoxyphenyl)-1-methylureido)pyrimidin-4-yl)amino)-5-(4-ethylpiperazin-1-yl)phenyl)acrylamide] yielded a solubility of 5200 µg/mL (≈ 8.26 mM).
